Test results as given in patent publication US12441730B2, “PRMT5 inhibitors” (Merck Sharp & Dohme LLC, priority 2019, dated 2025).
Read-outs that look alike come from different tables or passages of the source.

Key:
[1] = system: symmetric dimethylation of arginine (SDMA) of PRMT5 substrates in MCF-7 cells; assay: PRMT5 Cell Target Engagement (TE) Assay; type: cell-based; settings: 3 days treatment, SDMA high content imaging
Outline: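 Readout is single-cell nuclear symmetric-dimethylarginine immunofluorescence (Alexa488), normalized to DMSO-treated cells. Compounds were applied to MCF-7 cells for 3 days at 37 °C, top concentration 10000 nM in 1:3 steps over ten points; curves fitted with 4-parameter robust fit.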

[2] = molecular target: T1, Full-length (FL)-PRMT5-MEP50 enzyme complex (Homo sapiens, UniProt O14744); assay: PRMT5-MEP50 Enzyme Methylation Assay (Version A); type: biochemical
T1 construct: Full-length (FL)-PRMT5-MEP50 enzyme complex (recombinant proteins from baculovirus-transfected Sf21 cells: FL-PRMT5; MW=73837 kDa and FL-MEP50; MW=38614); made in house; host or cells: baculovirus-transfected Sf21 cells
Outline: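 Compound was pre-incubated with enzyme for 60 min, then reacted 150 min at 37° C. at final 1.0 nM PRMT5-MEP50, 15 μM SAM and 75 nM biotinylated H4R3(Me1) peptide, in 50 mM Bicine pH 8.0 with 1% DMSO. SAMDI mass-spectrometric readout of Me1→Me2 conversion. EC50 from 4- or 7-parameter regression.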

[3] = second value of 7 parameter biphasic fit, read-out: Enzyme Methylation Assay Version A (EC50 2)
[4] = single EC50 = 4 parameter single site sigmoidal fit, EC50 1 = first value of 7 parameter biphasic fit, read-out: Enzyme Methylation Assay Version A (EC50 or EC50 1)

T1 sequence (O14744 whole entry): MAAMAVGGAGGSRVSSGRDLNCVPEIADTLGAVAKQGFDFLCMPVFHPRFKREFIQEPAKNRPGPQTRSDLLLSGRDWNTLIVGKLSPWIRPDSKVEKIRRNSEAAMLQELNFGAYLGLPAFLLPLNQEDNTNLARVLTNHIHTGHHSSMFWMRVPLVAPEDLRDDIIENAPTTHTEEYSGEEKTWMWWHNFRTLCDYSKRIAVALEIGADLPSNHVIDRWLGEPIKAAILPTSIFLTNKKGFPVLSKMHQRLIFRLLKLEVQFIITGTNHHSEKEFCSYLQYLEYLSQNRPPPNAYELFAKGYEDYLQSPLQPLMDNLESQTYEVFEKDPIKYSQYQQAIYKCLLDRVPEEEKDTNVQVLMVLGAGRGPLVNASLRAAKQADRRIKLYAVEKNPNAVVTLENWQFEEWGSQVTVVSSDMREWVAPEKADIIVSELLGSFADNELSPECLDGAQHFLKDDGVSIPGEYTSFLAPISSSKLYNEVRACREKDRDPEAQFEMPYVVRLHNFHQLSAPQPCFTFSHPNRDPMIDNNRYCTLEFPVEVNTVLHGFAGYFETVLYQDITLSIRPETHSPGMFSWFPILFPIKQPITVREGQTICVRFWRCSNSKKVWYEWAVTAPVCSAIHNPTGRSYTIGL
T1 sequence (Q9BQA1 whole entry partner): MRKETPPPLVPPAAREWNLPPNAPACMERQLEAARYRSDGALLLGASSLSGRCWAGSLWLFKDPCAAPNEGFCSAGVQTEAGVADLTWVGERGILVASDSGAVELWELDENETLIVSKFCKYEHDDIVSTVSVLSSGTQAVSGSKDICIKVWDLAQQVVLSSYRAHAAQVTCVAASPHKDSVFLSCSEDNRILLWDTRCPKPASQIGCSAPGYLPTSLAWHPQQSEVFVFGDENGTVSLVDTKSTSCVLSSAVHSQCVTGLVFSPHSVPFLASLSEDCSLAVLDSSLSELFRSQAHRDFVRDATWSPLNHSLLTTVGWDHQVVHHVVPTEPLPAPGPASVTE

CC(C)(O)c1cc(Br)cn2cc(C(=O)N3CCC4(Cc5ccccc5CN4)C(O)C3)nc12 (stereo not drawn) [Example 48, A diastereomer of [6-bromo-8-(2-hydroxy-2-propanyl)imidazo[1,2-a]pyridin-2-yl](3′-hydroxy-1,4-dihydro-1′H,2H-spiro[isoquinoline-3,4′-piperidin]-1′-yl)methanone] was tested, and the EC50 ([1]; Homo sapiens, MCF7, 72 h) was 246 nM, the EC50 [2, 3] was 2980 nM and the EC50 [2, 4] was 4.91 nM.

With O=C(c1cn2cc(C(F)(F)F)cc(CO)c2n1)N1CC[C@]2(Cc3ccccc3CN2)[C@H](O)C1 [Example 29, ((3R,3’R)-3′-hydroxy-1,4-dihydro-1′H,2H-spiro[isoquinoline-3,4′-piperidin]-1′-yl)[8-(hydroxymethyl)-6-(trifluoromethyl)imidazo[1,2-a]pyridin-2-yl]methanone] the EC50 ([1]; Homo sapiens, MCF7, 72 h) was 18.4 nM, the EC50 [2, 3] was 653 nM and the EC50 [2, 4] was 0.428 nM.

For O=C(c1cn2cccc(F)c2n1)N1CC[C@]2(Cc3ccccc3CN2)[C@H](O)C1 [Example 202, (8-fluoroimidazo[1,2-a]pyridin-2-yl)[(3R,3′R)-3′-hydroxy-1,4-dihydro-1′H,2H-spiro[isoquinoline-3,4′-piperidin]-1′-yl]methanone], the EC50 ([1]; Homo sapiens, MCF7, 72 h) was 795 nM, the EC50 [2, 3] was 16200 nM and the EC50 [2, 4] was 26.3 nM.

In the case of Cc1c(C2CC2)cnc2nc(C(=O)N3CC[C@]4(Cc5ccccc5CN4)[C@H](O)C3)cn12 [Example 64, (6-cyclopropyl-5-methylimidazo[1,2-a]pyrimidin-2-yl)[(3R,3′R)-3′-hydroxy-1,4-dihydro-1′H,2H-spiro[isoquinoline-3,4′-piperidin]-1′-yl]methanone], the EC50 ([1]; Homo sapiens, MCF7, 72 h) is reported as 756 nM, the EC50 [2, 3] is reported as 9770 nM and the EC50 [2, 4] is reported as 19.1 nM.

Cc1cn2cc(C(=O)N3CC[C@]4(Cc5ccccc5CN4)[C@H](O)C3)nc2s1 [Example 223, [(3R,3′R)-3′-hydroxy-1,4-dihydro-1′H,2H-spiro[isoquinoline-3,4′-piperidin]-1′-yl](2-methylimidazo[2,1-b][1,3]thiazol-6-yl)methanone] showed an EC50 ([1]; Homo sapiens, MCF7, 72 h) of 445 nM, an EC50 [2, 3] of 631 nM and an EC50 [2, 4] of 22.1 nM.

Molecule Cc1nc(Br)cn2cc(C(=O)N3CC[C@]4(Cc5ccccc5CN4)[C@H](O)C3)nc12 [Example 65, (6-bromo-8-methylimidazo[1,2-a]pyrazin-2-yl)[(3R,3′R)-3′-hydroxy-1,4-dihydro-1′H,2H-spiro[isoquinoline-3,4′-piperidin]-1′-yl]methanone] has an EC50 ([1]; Homo sapiens, MCF7, 72 h) of 99.1 nM, an EC50 [2, 3] of 1360 nM and an EC50 [2, 4] of 1.19 nM.

N#CC1(c2cnc3nc(C(=O)N4CC[C@]5(Cc6ccccc6CN5)[C@H](O)C4)cn3c2)CC12CC2 (single isomer, unassigned) [Example 82] showed an EC50 [1] of 7.75 nM and an EC50 [2, 4] of 0.746 nM.

CC(C#N)c1ccc2nc(C(=O)N3CC[C@]4(Cc5ccccc5CN4)[C@H](O)C3)cn2c1 (stereo partly drawn) [Example 69, 2-(2-{[(3R,3′R)-3′-hydroxy-1,4-dihydro-1′H,2H-spiro[isoquinoline-3,4′-piperidin]-1′-yl]carbonyl}imidazo[1,2-a]pyridin-6-yl)propanenitrile] showed an EC50 ([1]; Homo sapiens, MCF7, 72 h) of 12.7 nM, an EC50 [2, 3] of 43.6 nM and an EC50 [2, 4] of 0.405 nM.

O=C(c1cn2cc(Br)nc(OCC3CCCO3)c2n1)N1CC[C@]2(Cc3ccccc3CN2)[C@H](O)C1 (single isomer, unassigned) [Example 100, (6-bromo-8-(((S or R)-tetrahydrofuran-2-yl)methoxy)imidazo[1,2-a]pyrazin-2-yl)((3R,3′R)-3′-hydroxy-1,4-dihydro-2H-spiro[isoquinoline-3,4′-piperidin]-1′-yl)methanone] gave an EC50 ([1]; Homo sapiens, MCF7, 72 h) of 4.13 nM, an EC50 [2, 3] of 60.6 nM and an EC50 [2, 4] of 0.266 nM.

With O=C(c1cn2cccc(Cl)c2n1)N1CC[C@]2(Cc3ccccc3CN2)[C@H](O)C1 [Example 206, (8-chloroimidazo[1,2-a]pyridin-2-yl)[(3R,3′R)-3′-hydroxy-1,4-dihydro-1′H,2H-spiro[isoquinoline-3,4′-piperidin]-1′-yl]methanone] the EC50 ([1]; Homo sapiens, MCF7, 72 h) was 363 nM, the EC50 [2, 3] was 7240 nM and the EC50 [2, 4] was 4.33 nM.

N#CC1(c2cc(Br)cn3cc(C(=O)N4CC[C@]5(Cc6ccccc6CN5)[C@H](O)C4)nc23)CC1 [Example 68, 1-(6-bromo-2-{[(3R,3′R)-3′-hydroxy-1,4-dihydro-1′H,2H-spiro[isoquinoline-3,4′-piperidin]-1′-yl]carbonyl}imidazo[1,2-a]pyridin-8-yl)cyclopropanecarbonitrile] gave an EC50 ([1]; Homo sapiens, MCF7, 72 h) of 99.6 nM, an EC50 [2, 3] of 1060 nM and an EC50 [2, 4] of 1.17 nM.

Work on O=C(c1cn2cc(Br)nc(OC3CCOC3)c2n1)N1CC[C@]2(Cc3ccccc3CN2)[C@H](O)C1 (single isomer, unassigned) [Example 99, (6-bromo-8-(((S or R)(tetrahydrofuran-3-yl)oxy)imidazo[1,2-a]pyrazin-2-yl)((3R,3′R)-3′-hydroxy-1,4-dihydro-2H-spiro[isoquinoline-3,4′-piperidin]-1′-yl)methanone] yielded an EC50 [1] of 7.8 nM, an EC50 [2, 3] of 147 nM and an EC50 [2, 4] of 0.427 nM.

With Cc1ccc(C(=O)N2CC[C@]3(Cc4ccccc4CN3)[C@H](O)C2)c(OCCO)n1 [Example 196, [(3R,3′R)-3′-hydroxy-1,4-dihydro-1′H,2H-spiro[isoquinoline-3,4′-piperidin]-1′-yl][2-(2-hydroxyethoxy)-6-methyl-3-pyridinyl]methanone] the EC50 ([1]; Homo sapiens, MCF7, 72 h) was 409 nM, the EC50 [2, 3] was 6310 nM and the EC50 [2, 4] was 15.3 nM.

O=C(c1cn2cc(C3CC3)ncc2n1)N1CC[C@]2(Cc3ccccc3CN2)[C@H](O)C1 [Example 134, (6-cyclopropylimidazo[1,2-a]pyrazin-2-yl)[(3R,3′R)-3′-hydroxy-1,4-dihydro-1′H,2H-spiro[isoquinoline-3,4′-piperidin]-1′-yl]methanone] was tested, and the EC50 ([1]; Homo sapiens, MCF7, 72 h) was 184 nM and the EC50 [2, 4] was 143 nM.

With O=C(c1cn2cc(O)cnc2n1)N1CC[C@]2(Cc3ccccc3CN2)[C@H](O)C1 [Example 129, [(3R,3′R)-3′-hydroxy-1,4-dihydro-1′H,2H-spiro[isoquinoline-3,4′-piperidin]-1′-yl](6-hydroxyimidazo[1,2-a]pyrimidin-2-yl)methanone] the EC50 ([1]; Homo sapiens, MCF7, 72 h) was ≥ 10000 nM and the EC50 [2, 4] was 836 nM.

With N#CCCC1CC(C(F)(F)F)Cn2cc(C(=O)N3CC[C@]4(Cc5ccccc5CN4)[C@H](O)C3)nc21 (single isomer, unassigned) [Example 164, 3-((6R,8S or 6S,8R)-2-((3R,3′R)-3′-hydroxy-1,4-dihydro-2H-spiro[isoquinoline-3,4′-piperidine]-1′-carbonyl)-6-(trifluoromethyl)-5,6,7,8-tetrahydroimidazo[1,2-a]pyridin-8-yl)propanenitrile] the EC50 [1] was 205 nM, the EC50 [2, 3] was 4620 nM and the EC50 [2, 4] was 4.83 nM.

In the case of O=C(c1cn2cc(C(F)(F)F)cc(C3CCOC3)c2n1)N1CC[C@]2(Cc3ccccc3CN2)[C@H](O)C1 (stereo partly drawn) [Example 154, ((3R,3′R)-3′-hydroxy-2,4-dihydro-1H-spiro[isoquinoline-3,4′-piperidin]-1′-yl)(8-(tetrahydrofuran-3-yl)-6-(trifluoromethyl)imidazo[1,2-a]pyridin-2-yl)methanone], the EC50 ([1]; Homo sapiens, MCF7, 72 h) is reported as 4.42 nM, the EC50 [2, 3] is reported as 266 nM and the EC50 [2, 4] is reported as 0.802 nM.

Work on O=C(c1ccc2c(O)c(CC(F)(F)F)cnc2c1)N1CC[C@]2(Cc3ccccc3CN2)[C@H](O)C1 [Example 153, ((3R,3′R)-3′-hydroxy-1,4-dihydro-2H-spiro[isoquinoline-3,4′-piperidin]-1′-yl)(4-hydroxy-3-(2,2,2-trifluoroethyl)quinolin-7-yl)methanone] yielded an EC50 ([1]; Homo sapiens, MCF7, 72 h) of 414 nM, an EC50 [2, 3] of 2950 nM and an EC50 [2, 4] of 4.3 nM.

Work on COC(C)c1cnc2nc(C(=O)N3CC[C@]4(Cc5ccccc5CN4)[C@H](O)C3)cn2c1 (single isomer, unassigned) [Example 136] yielded an EC50 ([1]; Homo sapiens, MCF7, 72 h) of 146 nM and an EC50 [2, 4] of 32.9 nM.

With O=C(c1ccn(CC(F)(F)F)c(=O)c1)N1CC[C@]2(Cc3ccccc3CN2)[C@H](O)C1 [Example 45, 4-((3R,3′R)-3′-hydroxy-1,4-dihydro-2H-spiro[isoquinoline-3,4′-piperidine]-1′-carbonyl)-1-(2,2,2-trifluoroethyl)pyridin-2(1H)-one] the EC50 ([1]; Homo sapiens, MCF7, 72 h) was 224 nM, the EC50 [2, 3] was 16000 nM and the EC50 [2, 4] was 70 nM.

COCc1nc(C)cn2cc(C(=O)N3CC[C@]4(Cc5ccccc5CN4)[C@H](O)C3)nc12 [Example 250, [(3R,3′R)-3′-hydroxy-1,4-dihydro-1′H,2H-spiro[isoquinoline-3,4′-piperidin]-1′-yl][8-(methoxymethyl)-6-methylimidazo[1,2-a]pyrazin-2-yl]methanone] showed an EC50 ([1]; Homo sapiens, MCF7, 72 h) of 1730 nM and an EC50 [2, 4] of 610 nM.

COc1nc2nc(C(=O)N3CC[C@]4(Cc5ccccc5CN4)[C@H](O)C3)cn2cc1Br (single isomer, unassigned) [Example 248] gave an EC50 ([1]; Homo sapiens, MCF7, 72 h) of 9.35 nM, an EC50 [2, 3] of 153 nM and an EC50 [2, 4] of 0.556 nM.

For N#CC1(c2cnc3nc(C(=O)N4CC[C@]5(Cc6ccccc6CN5)[C@H](O)C4)cn3c2)CC12CC2 (single isomer, unassigned) [Example 83], the EC50 [1] was 90.8 nM, the EC50 [2, 3] was 3160 nM and the EC50 [2, 4] was 3.28 nM.

In the case of O=C(c1cn2cc(Br)cc(C(F)(F)F)c2n1)N1CC[C@]2(Cc3ccccc3CN2)[C@H](O)C1 [Example 55, [6-bromo-8-(trifluoromethyl)imidazo[1,2-a]pyridin-2-yl][(3R,3′R)-3′-hydroxy-1,4-dihydro-1′H,2H-spiro[isoquinoline-3,4′-piperidin]-1′-yl]methanone], the EC50 ([1]; Homo sapiens, MCF7, 72 h) is reported as 1.17 nM, the EC50 [2, 3] is reported as 170 nM and the EC50 [2, 4] is reported as 0.817 nM.
